Measurements taken from patent US8754233B2, “Pyrazolylbenzothiazole derivatives and their use as therapeutic agents” (Dermira (Canada), Inc., priority 2002, dated 2014).
pIC50: −log10 of the molar value.

Assays:
K5P5 podocyte cell line = assay: Survival assay in podocytes (PAN treatment, MTS); type: cell-based, murine; conditions: for pIC50: Mus musculus, PAN treated, MTS; for % Survival: PAN treated K5P5 podocytes
From the text: The treatment of glomerular visceral epithelial cells (podocytes) with high concentrations of puromycin aminonucleoside (PAN) causes significant cytotoxic effects. An assessment of cell viability subsequent to a cytotoxic exposure can be judged qualitatively by examining changes in cell phenotype after staining with crystal violet or determined quantitatively by employing a cytotoxic assay using the soluble tetrazolium salt [3-(4,5-dimethylthiazol-2-yl)-5-(3-carboxymethoxyphenyl)-2-(4-sulfophenyl)-2H-tetrazolium, inner salt] (MTS). Such a system can be used to evaluate the survival effects that ILK compounds have on podocytes following exposure to PAN or other cytotoxic agents.
The cell line employed for the podocyte model was the murine K5P5. […] The cells should be propagate to a maximum of 20 passages.
The flasks were incubated at 37° C., 5% CO2 for 3 days.
The flasks were incubated at 37° C., 5% CO2 for 4 days.
Cells were trypsinized (0.25%), collected from the tissue culture flasks centrifuged, resuspended and counted. […] The flasks were incubated at 37° C., 5% CO2 for 3 days.
10 μl of this 10× compound solution is added to the 80 μl of cells already present in the 96-well plates. For cell undergoing cytotoxic treatment, puromycin aminonuceloside (PAN, Sigma P7130) was added at a 10× concentration to 90 μl of cells. The positive control is PAN treatment without compound. The negative control is 100% DMSO diluted to the same factor as the compounds without PAN.
The plates are incubated at 37° C., 5% CO2 for 48 to 72 hours depending on the PAN concentration (i.e. lower concentrations of PAN required a longer incubation period). The medium is aspirated after plates are spun at 2400 rpm for 10 min at ambient temperature. 100 μl of 1×DPBS (without CaCl2, without MgCl2) is added to each well.
The MTS (Promega) is prepared under low lighting conditions by dissolving 4.0 g of MTS in 1.8 I of 1×DPBS. The solution is allowed to sit for 10 minutes and pH adjusted to 6.2. […] Absorbance is measured at 490 nm wavelength with a microplate reader.

ConA 1° splenocytes = assay: Survival of ConA 1° splenocytes (cytotoxicity by MTS staining); type: cell-based, mouse; conditions: ConA-stimulated splenocytes
Protocol: (§1) The working concentration of ConA was […]. A 20× working concentration of Concanavalin A was […] was prepared using RPMI-5. The test compounds, dimethylsulfoxide (DMSO) negative vehicle control and staurosporine positive control were diluted twenty times using RPMI-5. Ten μL each of DMSO and staurosporine were combined with 180 μl of medium containing splenocytes in the wells, and 10 μl of 50 μg/ml ConA was immediately added. Medium without ConA was added to the control wells. […] The plates were incubated at 37° C. in 5% CO2 in humidified conditions overnight (18-24 hours) for INFγ.
(MTS). The MTS solution was made fresh and under low light. The electron coupling reagent phenazine methosulfate (PMS) was added at the time of the assay. Twenty μL of MTS solution per 100 μl of tissue culture medium was added to each well. The plates were incubated 37° C. for 4 hours for unstimulated and 18-24 ConA stimulated splenocytes. The absorbance was read at 490 nm wavelength. A kit available to do this assay is “CellTiter 96® AQ Kit AQueous Kit (G5421)” by Promega.

[1] = system: IFNg on ConA 1° splenocytes; assay: Inhibition of IFNγ release from ConA-stimulated splenocytes; type: cell-based, mouse; conditions: ConA-stimulated Balb/c splenocytes, 18-24 hours, ELISA
Protocol: T-lymphocytes obtained from mice spleens are a suitable sample for studying the activation properties of this immunologically important cell type. T-lymphocytes are the main regulators for inflammation. Concanavalin A (ConA) is an effective activator of T-lymphocytes, which allows T-lymphocytes to proliferate and produce inflammatory cytokines, such as Interferon (IFNγ) and regulatory cytokines, such as Interleukin 10 (IL-10).
The spleens were transferred onto mesh screen containing 10 ml of ice cold RPMI-5 (1× sodium pyruvate and 5% FBS) and gently ground with a pestle. The cell suspensions were centrifuged at 1500 rpm for 6 minutes at 4° C. […] The supernatant was discarded and the pellet washed two additional times. The cells were resuspended in RPMI-5 and the cell suspensions combined. The cells were counted and their concentration was adjusted to 2.8×10^6 cells/ml using RPMI-5.
as §1
At the completion of the stimulation described above, the plates were spun at 2000 rpm for 10 minutes. The supernatants (100 μl) from each well were transferred to fresh plates for INFγ analysis by ELISA.
INFγ levels in the supernatants from stimulated lymphocytes were determined with PharMingen's OptEIA™ INFγ Kit (PharMingen) according to manufacturer's directions. The data, shown in Table 2 infra, is represented as a percentage of INFγ inhibition by the following formula: INFγ inhibition=100−(AVG treatment/AVG DMSO control)*100.

MCP1 on HUVECS = assay: Inhibition of MCP-1 release from TNFα-stimulated HUVEC; type: cell-based, human; conditions: Homo sapiens, 18-24 hours, ELISA
From the text: The activation of endothelial cells by pro-inflammatory cytokine TNF-α leads to the production of several chemokines. The release of these chemokines play an important role in leukocyte trafficking and extravasation of leukocytes into tissue during inflammation. MCP-1 and IL-8 are among the chemokines released upon stimulation of human endothelial cells (HUVECs) by TNFα, and contribute to migration of monocytes to the sites of inflammation. Cells should not be passaged more than 6 times.
Cells were maintained and grown in tissue culture flasks (T75) in endothelial cell growth medium (EGM, Clonetics) containing 5 additional supplements (EGM-5) in medium [human recombinant endothelial growth factor (hEGF), hydrocortisone (HC), bovine brain extract (BBE), fetal bovine serum (FBS) and Gentamycin (GA)] incubated at 37° C., 5% CO2. The cells should be propagated a maximum of 20 passages.
The plates were incubated overnight at 37° C., 5% CO2 to enable the cells to attach and grow.
The working concentration of TNFα was 1,000 pg/ml. A twenty times working concentration of TNFα was 20,000 pg/ml was prepared using EGM-5. The test compounds, DMSO negative vehicle control and staurosporine positive control were diluted 20× using EGM-5. Ten μL each of the compounds, DMSO and staurosporine were combined with 180 μl of medium containing HUVEC cells. Immediately following the addition of the compounds, 10 μl of […] TNFα was added to the wells. Medium without TNFα was added to the control wells. […] The plates were incubated at 37° C. in 5% CO2 in humidified conditions overnight (18-24 hours) for TNFα.
At the completion of the stimulation, the plates were spun at 2000 rpm for 10 minutes. The supernatants from each well were transferred to fresh plates for MCP1 analysis by ELISA.
[…] were determined with PharMingen's OptEIA™ MCP1 Kit (PharMingen) according to manufacturer's instructions.
The data is represented as a percentage of MCP1 inhibition by the following formula: % MCP1 inhibition=100−(AVG treatment/AVG DMSO control)*100.

TNFa on macrophages = assay: Inhibition of TNFα release from stimulated macrophages; type: cell-based, mouse; conditions: Mus musculus, Macrophage; LPS and IFN-γ stimulated primary macrophages, ELISA
Protocol: Peritoneal exudate macrophages were isolated by peritoneal lavage with ice-cold sterile physiological saline 24 hours after intraperitoneal injection of BALB/c mice with 0.5 mL of sterile Zymosan A (1 mg/0.5 mL 0.9% saline). […] Murine primary macrophage will get activated following incubation with LPS in the presence of sub-optimal doses of IFN-γ. […] TNF-αlevels in the supernatants from stimulated macrophages were determined with PharMingen's OptEIA TNF-α kit (PharMingen). The experiment was performed at room temperature, about 21° C., unless otherwise stated. The microwells (F8 MaxiSorp™ Loose/Nunc-Immuno Module; Gibco/BRL) were coated with 100 μl/well of capture antibody (at the recommended concentration) and incubated overnight at 4° C. […] Next, the solution was removed and the plates were washed 5× with wash buffer. The TNF-αanalysis was initiated by adding duplicate samples (100 μl/well) or standards (100 μl/well) in diluent buffer which were incubated for 2 h. The solution was removed and the plates washed 5× with wash buffer. Enzyme reagent (100 μl) containing biotinylated mouse TNF-αmonoclonal antibody and avidin-horseradish peroxidase conjugate (at concentrations recommended by the manufacturer) was added to each well. The plate was incubated for 1 hour, the solution removed, and the plates washed 7× with wash buffer. […] Colour development was terminated by adding 50 μl of 2N H2SO4. […] Peritoneal exudate macrophages were isolated by peritoneal lavage with ice-cold sterile physiological saline 24 hours after intraperitoneal injection of BALB/c mice with 0.3 ml of sterile zymosan A (1 mg/0.5 mL 0.9% saline). […] All treatments were replicated six times. Cells were incubated for an additional 24 hours, and cell free culture supernatants from each well were collected for NO and cytokine determination. The remaining cells were stained with crystal violet to determine effect of the compound on cell survival.

macrophages = assay: Survival of macrophages; type: cell-based, mouse; conditions: Mus musculus, Macrophage; stimulated primary macrophages
Protocol: Peritoneal exudate macrophages were isolated by peritoneal lavage with ice-cold sterile physiological saline 24 hours after intraperitoneal injection of BALB/c mice with 0.3 ml of sterile zymosan A (1 mg/0.5 mL 0.9% saline). […] 1.5×10^5 cells/well were seeded in 96-well plates and followed by 3 hour incubation at 37° C. with 5% CO2 (macrophages were allowed to attach) cells were stimulated with LPS ([…]/mL) and IFN-γ (100 U/mL) in the absence or presence of the test compounds. All treatments were replicated six times. Cells were incubated for an additional 24 hours, and cell free culture supernatants from each well were collected for NO and cytokine determination. The remaining cells were stained with crystal violet to determine effect of the compound on cell survival.

Question: COc1cc2sc(-c3c(-c4ccco4)n[nH]c3N)nc2cc1F [4-(5-Fluoro-6-methoxybenzothiazol-2-yl)-5-furan-2-yl-2H-pyrazol-3-ylamine] was tested. Which pIC50 (K5P5 podocyte cell line) did it give?
Answer: 5.60

Question: Cc1n[nH]c(N)c1-c1nc2cc(F)c(S(=O)(=O)NCCO)cc2s1 [2-(5-Amino-3-methyl-1H-pyrazol-4-yl)-5-fluorobenzothiazole-6-sulfonic acid (2-hydroxy-ethyl)-amide] was tested. Which pIC50 (ConA 1° splenocytes; Mus musculus, Splenocyte) did it give?
Answer: < 4.60

Question: And the “% Survival” value (K5P5 podocyte cell line; @ 25 μM)?
Answer: 30%

Question: Which results are given for COc1ccc2nc(-c3c(N4CCNCC4)n[nH]c3N)sc2c1 [4-(6-Methoxybenzothiazole)-5-piperizin-1-yl-2H-pyrazol-3-ylamine]?
Answer: pIC50 (ConA 1° splenocytes): 4.69; pIC50 [1]: 5.23

Question: What does the source list for Nc1n[nH]cc1-c1nc2ccc(F)cc2s1 [4-(6-Fluorobenzothiazol-2-yl)-1H-pyrazol-3-ylamine]?
Answer: pIC50 (MCP1 on HUVECS): ~4.60; pIC50 (TNFa on macrophages): < 4.60; pIC50 (macrophages): < 4.60

Question: Which results are given for Cc1n[nH]c(N)c1-c1nc2cc(F)c(S(N)(=O)=O)cc2s1 [2-(5-Amino-3-methyl-1H-pyrazol-4-yl)-5-fluoro-benzothiazole-6-sulfonic acid amide]?
Answer: % Survival (K5P5 podocyte cell line; @ 12.5 μM): 30%; pIC50 (TNFa on macrophages): 6.05

Question: CNS(=O)(=O)c1cc2sc(-c3c(N)n[nH]c3C)nc2cc1F [2-(3-Amino-5-methyl-1H-pyrazol-4-yl)-5-fluorobenzothiazole-6-sulfonic acid methylamide] was tested. Which pIC50 ([1]; Mus musculus, Splenocyte) did it give?
Answer: 6.43

Question: How did the pIC50 (MCP1 on HUVECS) turn out when Nc1n[nH]c(CCCO)c1-c1nc2ccccc2s1 [3-(5-Amino-4-benzothiazol-2-yl-2H-pyrazol-3-yl)-propan-1-ol] was run?
Answer: ~4.60

Question: What about the pIC50 (TNFa on macrophages) of the same molecule?
Answer: < 4.60

Question: How did the pIC50 (ConA 1° splenocytes; Mus musculus, Splenocyte) turn out when COc1cc2sc(-c3c(-c4ccncc4)n[nH]c3N)nc2cc1F [4-(5-Fluoro-6-methoxybenzothiazol-2-yl)-5-pyridin-4-yl-2H-pyrazol-3-ylamine] was run?
Answer: < 4.60

Question: And the pIC50 (MCP1 on HUVECS)?
Answer: < 4.60

Question: And the pIC50 (TNFa on macrophages)?
Answer: < 4.60

Question: What about the pIC50 (macrophages) of the same molecule?
Answer: < 4.60

Question: How did the pIC50 (ConA 1° splenocytes; Mus musculus, Splenocyte) turn out when Cc1cc2sc(-c3cn[nH]c3N)nc2cc1F [4-(5-Fluoro-6-methylbenzothiazol-2-yl)-2H-pyrazol-3-ylamine] was run?
Answer: < 4.60

Question: What about the pIC50 ([1]; Mus musculus, Splenocyte) of the same molecule?
Answer: < 4.60

Question: With Cc1n[nH]c(N)c1-c1nc2ccc(CN(C)C)cc2s1 [4-(6-Dimethylaminomethylbenzothiazol-2-yl)-5-methyl-2H-pyrazol-3-ylamine] as the molecule, how does the pIC50 (K5P5 podocyte cell line) read?
Answer: 4.90

Question: How did the pIC50 (K5P5 podocyte cell line) turn out when CNS(=O)(=O)c1ccc2nc(-c3c(N)n[nH]c3C)sc2c1 [2-(3-Amino-5-methyl-1H-pyrazol-4-yl)benzothiazole-6-sulfonic acid methylamide] was run?
Answer: 4.90

Question: CNCc1ccc2nc(-c3c(C)n[nH]c3N)sc2c1 [5-Methyl-4-(6-methylaminomethylbenzothiazol-2-yl)-2H-pyrazol-3-ylamine] was tested. Which pIC50 (ConA 1° splenocytes; Mus musculus, Splenocyte) did it give?
Answer: 6.05

Question: And the pIC50 ([1]; Mus musculus, Splenocyte)?
Answer: 6.30

Question: How did the pIC50 (ConA 1° splenocytes) turn out when COc1cc2sc(-c3c(NCCCN(C)C)n[nH]c3N)nc2cc1F [N^3-(3-Dimethylaminopropyl)-4-(5-fluoro-6-methoxybenzothiazole)-1H-pyrazole-3,5-diamine] was run?
Answer: ~4.60

Question: And the pIC50 [1]?
Answer: 4.99

Question: What does the source list for Cc1n[nH]cc1-c1nc2ccccc2s1 [2-(3-Methyl-1H-pyrazol-4-yl)-benzothiazole]?
Answer: pIC50 (MCP1 on HUVECS): < 4.60; pIC50 (TNFa on macrophages): < 4.60; pIC50 (macrophages): < 4.60

Question: With Nc1[nH]nc(N2CCNCC2)c1-c1nc2ccccc2s1 [4-Benzothiazol-2-yl-5-piperazin-1-yl-2H-pyrazol-3-ylamine] as the molecule, how does the pIC50 (TNFa on macrophages) read?
Answer: < 4.60

Question: What about the pIC50 (macrophages) of the same molecule?
Answer: < 4.60
